Results published in patent publication US11813252B2, “Treatment for Parkinson's disease” (SUN PHARMA ADVANCED RESEARCH COMPANY LTD., priority 2016, dated 2023).
Each block holds one compound with its values, some of them ahead of it.

Tests used:
[1] = Brain/plasma pharmacokinetic study in mice; format: in vivo, C57BL6 mice
Method: At 1, 4 & 8 hour time points post treatment, mice were anesthetized with isoflurane and a 0.4 mL of blood was withdrawn from retro-orbital plexus into eppendorf tubes containing 8 μL sodium heparin as an anticoagulant (100 IU/ml) and transferred to ice containers. Blood samples were centrifuged immediately for 7 min at 8500 rpm, 4° C. Plasma was separated in the pre-labeled eppendorf tubes and stored at −70° C. till further analysis. Immediately thereafter, the mice were sacrificed, whole brain was removed and rinsed with ice-cold phosphate buffered saline (PBS) to remove extraneous blood and blot-dried. Brain tissue samples were weighed and homogenized in 1:2 volume of PBS using a tissue homogenizer and stored in labeled vials at −70° C. until further analysis. Concentrations of the compound of Formula I.a in brain and plasma were determined using the LC-MS technique.

[2] = tested on: neurodegeneration induced by MPTP (TH-positive neurons); experiment: MPTP animal model of Parkinson's disease, TH immunohistochemistry; format: in vivo, C57BL/6 mice; details: oral, 10 or 30 mg/kg once a day, 6 days before, on the day of and 7 days after MPTP; substantia nigra pars compacta
[3] = QT, QTc intervals and heart rate in conscious telemetered beagle dogs; format: in vivo; details: for Emesis: beagle dogs
Method: Compound of Formula I.a was administered via peroral (p.o.) route at three dose levels: 5, 15, and 30 mg/kg in conscious telemetered male and female beagle dogs.
(§1) Measurements of ECG parameters (QT interval, QTcb interval, QTcf interval) and heart rate were carried out and recorded over a period of 2 hour prior to drug administration (baseline), and continuously up to 24 hour post-administration. Each animal received both vehicle (placebo) and three different doses of the compound of Formula I.a on different days in a Latin square design, with a washout period of a minimum of 96 hr. On a separate day, one additional oral dosing of compound of Formula I.a was performed to assess plasma concentrations of the compound of Formula I.a at different time points, to derive pharmacokinetic (PK) parameters.
Data of ECG parameters (QT interval, QTcb interval, QTcf interval,) and heart rate were statistically compared as follows: Data of the placebo group at 0.5, 1, 1.5, 2, 3, 4, 5, 6, 8, 12, and 24 hour time points were compared with baseline data of the same group. Data of different groups treated with the compound of Formula I.a were compared with the corresponding data of the placebo group.

hERG K+ channel = target: T1, hERG K+ channel (Homo sapiens, UniProt Q12809); experiment: hERG K+ channel patch clamp in HEK293 cells; format: cell-based; details: for Inhibition of hERG current (in words): at the concentration tested
T1 construct: expressed in transfected cells
Method: The in vitro effect of the compounds of Formula I.a and I.b on ionic currents in voltage-clamped human embryonic kidney cells (HEK293) that stably express the human ether-à-go-go-related gene (hERG) was examined. Two concentrations of the compounds of Formula I.a and I.b (1 and 10 μM) were tested at near physiological temperature.
Cells were transferred to the recording chamber and superfused with vehicle control solution (HEPES-buffered physiological saline solution+1% dimethylsulfoxide+1% Bovine serum albumin). Micropipette solution for whole cell patch clamp recordings was composed of: potassium aspartate, 130 mM; MgCl2, 5 mM; EGTA, 5 mM; ATP, 4 mM; HEPES, 10 mM; pH adjusted to 7.2 with 10N KOH. Micropipette solution was prepared in batches, aliquoted, stored frozen and a fresh aliquot thawed each day. The recording was performed at a temperature of 33 to 35° C. using a combination of in-line solution pre-heater, chamber heater and feedback temperature controller. Temperature was measured using a thermistor probe in the recording chamber. Micropipettes for patch clamp recording were made from glass capillary tubing using a P-97 micropipette puller (Sutter Instruments, Novato, Calif.). A commercial patch clamp amplifier was used for whole cell recordings. Before digitization, current records were low-pass filtered at one-fifth of the sampling frequency.
Cells stably expressing hERG were held at −80 mV. Onset and steady state inhibition of hERG potassium current due to the test compounds (Formula I.a and I.b) were measured using a pulse pattern with fixed amplitudes (conditioning prepulse +20 mV for 1 s; repolarizing test ramp to −80 mV (−0.5 V/s) repeated at 5 s intervals). […] was subtracted off-line digitally from the data to determine the potency of the test compounds for hERG inhibition.

[4] = Plasma pharmacokinetics in beagle dogs; format: in vivo; details: dog, oral
Method: as §1

[5] = QT, QTc intervals and heart rate in anesthetized guinea pig; format: in vivo, Dunkin-Hartley guinea pigs; details: 1 mg/kg intravenous infusion over 10 min
Method: Male Dunkin-Hartley guinea pigs of body weight range 300-400 g were anaesthetized by intraperitoneal injection of urethane (1.5 g/kg). A tracheotomy was performed and animal was allowed to breath spontaneously throughout the experiment. The left jugular vein was catheterized using polyethylene catheter filled with heparinized saline solution (100 IU/mL) for drug administration. Electrodes were placed in lead II position and baseline ECG was recorded.
For different animals, according to body weight, doses of the compound of Formula I.b were weighed and prepared in 0.5 mL of DMSO and administered via a slow intravenous infusion administered over a period of 10 min. ECGs were recorded during and after completion of infusion up to 0.5 hr. QT and RR intervals were measured, using PowerLab 4SP® software. The data were analyzed at 1, 5, and 10 min during infusion and 5, 10, 15 and 30 min after infusion taking mean of 9 beats.

Abl (human) = Abl (human) (Homo sapiens, UniProt P00519); experiment: Abl kinase inhibition; format: biochemical; details: read-out: Comparative potencies of tyrosine kinase inhibitors in c-Abl IC50
Method: [specific activity approx. 500 cpm/pmol, concentration as required). The reaction is initiated by the addition of the MgATP mix. After incubation for 40 minutes at room temperature, the reaction is stopped by the addition of 5 μL of a 3% phosphoric acid solution. 10 μL of the reaction is then spotted onto a P30 filtermat and washed three times for 5 minutes in 75 mM phosphoric acid and once in methanol prior to drying and scintillation counting.

[6] = human, HEK293 cells stably expressing hERG, 33 to 35° C., n=3, read-out: Mean percent inhibition of hERG current

T1 sequence (Q12809 whole entry): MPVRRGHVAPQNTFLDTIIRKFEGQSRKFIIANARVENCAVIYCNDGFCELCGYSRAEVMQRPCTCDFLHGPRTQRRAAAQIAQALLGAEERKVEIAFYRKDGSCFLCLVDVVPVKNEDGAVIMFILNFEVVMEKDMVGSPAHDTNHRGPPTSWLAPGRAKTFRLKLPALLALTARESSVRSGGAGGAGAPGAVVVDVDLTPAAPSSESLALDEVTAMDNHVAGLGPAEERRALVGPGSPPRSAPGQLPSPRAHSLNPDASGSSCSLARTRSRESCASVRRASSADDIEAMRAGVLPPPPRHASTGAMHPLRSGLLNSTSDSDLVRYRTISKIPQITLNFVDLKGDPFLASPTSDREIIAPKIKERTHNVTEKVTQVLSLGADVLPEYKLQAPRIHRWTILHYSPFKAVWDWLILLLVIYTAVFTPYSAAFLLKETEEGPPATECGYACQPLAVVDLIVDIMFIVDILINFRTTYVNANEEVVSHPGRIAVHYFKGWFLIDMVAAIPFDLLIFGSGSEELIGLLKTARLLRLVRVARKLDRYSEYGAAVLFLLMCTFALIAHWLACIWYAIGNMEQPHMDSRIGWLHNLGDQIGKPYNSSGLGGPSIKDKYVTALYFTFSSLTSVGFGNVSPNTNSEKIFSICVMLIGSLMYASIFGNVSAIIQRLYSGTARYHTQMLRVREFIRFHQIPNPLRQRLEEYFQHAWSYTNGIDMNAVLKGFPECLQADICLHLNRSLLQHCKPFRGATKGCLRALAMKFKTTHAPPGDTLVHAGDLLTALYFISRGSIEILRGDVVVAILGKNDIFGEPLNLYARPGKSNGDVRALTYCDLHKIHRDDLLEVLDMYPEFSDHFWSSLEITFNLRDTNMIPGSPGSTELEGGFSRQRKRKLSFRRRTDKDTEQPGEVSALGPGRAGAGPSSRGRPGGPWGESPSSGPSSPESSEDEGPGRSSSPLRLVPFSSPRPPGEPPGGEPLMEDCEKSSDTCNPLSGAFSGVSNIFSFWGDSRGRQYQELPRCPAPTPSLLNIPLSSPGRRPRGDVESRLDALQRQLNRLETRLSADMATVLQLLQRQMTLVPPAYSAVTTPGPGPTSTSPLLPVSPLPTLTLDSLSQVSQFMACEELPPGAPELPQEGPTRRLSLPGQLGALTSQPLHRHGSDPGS
Chain of Abl (human) (P00519 whole entry): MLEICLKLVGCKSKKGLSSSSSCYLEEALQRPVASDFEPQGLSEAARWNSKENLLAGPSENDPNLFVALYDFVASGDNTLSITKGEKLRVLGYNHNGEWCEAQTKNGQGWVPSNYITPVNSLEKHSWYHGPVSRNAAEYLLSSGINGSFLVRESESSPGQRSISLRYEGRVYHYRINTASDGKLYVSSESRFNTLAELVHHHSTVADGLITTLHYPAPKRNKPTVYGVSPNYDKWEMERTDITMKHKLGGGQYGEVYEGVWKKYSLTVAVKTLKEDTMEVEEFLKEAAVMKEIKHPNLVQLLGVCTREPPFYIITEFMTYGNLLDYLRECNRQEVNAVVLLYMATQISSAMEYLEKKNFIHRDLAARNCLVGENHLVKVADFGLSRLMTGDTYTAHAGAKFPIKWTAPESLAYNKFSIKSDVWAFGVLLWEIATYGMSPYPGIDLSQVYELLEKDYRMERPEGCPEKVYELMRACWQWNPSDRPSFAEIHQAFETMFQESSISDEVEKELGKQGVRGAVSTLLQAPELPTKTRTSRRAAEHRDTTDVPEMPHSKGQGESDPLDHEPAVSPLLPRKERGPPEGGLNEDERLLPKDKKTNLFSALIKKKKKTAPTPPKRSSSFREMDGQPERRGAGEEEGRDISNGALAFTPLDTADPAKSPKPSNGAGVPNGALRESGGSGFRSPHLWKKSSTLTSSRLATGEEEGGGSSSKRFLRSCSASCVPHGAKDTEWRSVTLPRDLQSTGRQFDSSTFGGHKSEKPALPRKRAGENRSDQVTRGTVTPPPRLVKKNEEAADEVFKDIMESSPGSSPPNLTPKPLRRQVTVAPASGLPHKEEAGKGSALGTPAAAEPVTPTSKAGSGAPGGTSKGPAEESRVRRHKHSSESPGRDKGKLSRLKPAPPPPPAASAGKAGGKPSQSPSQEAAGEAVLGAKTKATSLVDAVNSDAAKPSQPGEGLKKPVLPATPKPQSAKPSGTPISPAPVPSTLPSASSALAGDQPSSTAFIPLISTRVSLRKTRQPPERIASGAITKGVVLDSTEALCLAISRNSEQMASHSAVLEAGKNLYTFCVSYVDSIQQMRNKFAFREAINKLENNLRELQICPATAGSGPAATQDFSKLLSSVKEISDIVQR

Plasma conc. ([1]; oral, I.a 30 mg/kg, nilotinib 100 mg/kg, dasatinib 30 mg/kg, 8 hr): BQL
Compound: Cc1nc(Nc2ncc(C(=O)Nc3c(C)cccc3Cl)s2)cc(N2CCN(CCO)CC2)n1 [Dasatinib, dasatinib, reference compound]

AUC(0-inf) ([4]; 5 mg/kg): 1920 to 4820 ng·h/mL | Cmax ([4]; 5 mg/kg): 1220 to 2030 ng/mL | AUC(0-inf) ([4]; 15 mg/kg): 6780 to 12800 ng·h/mL | Cmax ([4]; 15 mg/kg): 2720 to 5320 ng/mL | AUC(0-inf) ([4]; 30 mg/kg): 25900 to 46700 ng·h/mL | Cmax ([4]; 30 mg/kg): 9820 to 9970 ng/mL | Brain to plasma ratio as compared to nilotinib or dasatinib ([1]; oral 30 mg/kg): significantly higher
Compound: Cc1ccc(C(=O)NNC(=O)c2c(C)cccc2Cl)cc1C#Cc1cnc2ccccc2c1 [Compound I.a, N′-(2-Chloro-6-methylbenzoyl)-4-methyl-3-[2-(3-quinolyl)ethynyl]-benzohydrazide]
Prevention of neurodegeneration induced by MPTP (TH-positive neurons, percentage area, integrated density) [2]: significantly prevented the neurodegeneration induced by MPTP | Emesis ([3]; p.o., 30 mg/kg, at 14 min following dosing): Emesis occurred in two animals | Emesis ([3]; p.o., 5 and 15 mg/kg): No emesis was observed | Change in ECG morphology ([3]; conscious beagle dogs, any dose level): no change in ECG morphology | Heart rate ([3]; conscious beagle dogs, p.o., 5 and 15 mg/kg): remained unchanged | Effect on QT, QTcb, QTcf durations compared with placebo ([3]; conscious beagle dogs, p.o., 5 and 15 mg/kg, up to 24 hour): no effects | Effect on cardiovascular functions ([3]; conscious beagle dogs, single oral administration up to 15 mg/kg): no effect on cardiovascular functions | Inhibition of hERG current (in words) (hERG K+ channel): did not show any significant inhibition of hERG current | inhibition at 1 µM (hERG K+ channel; [6]): 2.1 ± 0.4% | inhibition at 10 µM (hERG K+ channel; human, HEK293 cells stably expressing hERG, 10 μM, 33 to 35° C., n=3, read-out: Mean percent inhibition of hERG current): 9.7 ± 0.4%

IC50 (Abl (human)): 0.6 nM
Compound: Cc1ccc(C(=O)NNC(=O)c2c(C)cccc2Cl)cc1C#Cc1ccc(NC(=O)C2CC2)nc1 [Compound I.b, Cyclopropanecarboxylic acid (5-{5-[N′-(2-chloro-6-methylbenzoyl)hydrazinecarbonyl]-2-methyl-phenylethynyl}-pyridin-2-yl)amide]
Change in QT intervals [5]: no change in QT intervals | Prevention of neurodegeneration induced by MPTP (TH-positive neurons, percentage area, integrated density) [2]: significantly prevented the neurodegeneration induced by MPTP | Inhibition of hERG current (in words) (hERG K+ channel): did not show any significant inhibition of hERG current | inhibition at 0.3 µM (hERG K+ channel; human, HEK293 cells stably expressing hERG, 0.3 μM, 33 to 35° C., n=3, read-out: Mean percent inhibition of hERG current): 5.6% | inhibition at 1 µM (hERG K+ channel; [6]): 12.9% | inhibition at 3 µM (hERG K+ channel; human, HEK293 cells stably expressing hERG, 3 μM, 33 to 35° C., n=3, read-out: Mean percent inhibition of hERG current): 25%
